# From article PMC8035703, “Effect of Synchronous Versus Sequential Regimens on the Pharmacokinetics and Biodistribution of Regorafenib with Irradiation” (Pharmaceutics, 2021)
# Where “and” joins values, the source holds several entries; their conditions need not be identical. Identical values can stand only once. Like-named read-outs stand apart in the source and are kept apart here. Marks after values point to notes of the source that are not given here.
# Experiment: Pharmacokinetics of regorafenib in plasma of freely moving rats with or without RT (HPLC-UV)
# Format: in vivo, Sprague-Dawley rats
# Conditions: for MRT / Tmax / half-life: plasma, po, 16 mg/kg; for half-life: read-out: t½
# Procedure: The Institutional Animal Experimentation Committee of National Yang-Ming University, Taipei, Taiwan, and the Institutional Animal Care and Use Committee (IACUC, approval number 1070523) reviewed and approved the protocol. The Laboratory Animal Center at National Yang-Ming University (Taipei, Taiwan) provided adult male Sprague-Dawley rats (300 ± 20 g body weight). A pathogen-free environment with a 12 h light–dark cycle, with access to water ad libitum and food (laboratory rodent diet 5P14, PMI Feeds, Richmond, IN, USA), was provided for the animals.
# A freely moving rat model was designed for the current study. The rats were anaesthetized and immobilized on a board, while undergoing computed tomography for localization of the whole liver or a central area 1.5 cm × 1.5 cm in size for the SBRT technique. For the whole liver field, the cranial margin was set 5 mm from the top of the diaphragm, and the caudal margin was set 5 mm lower than the liver margin. The whole liver was targeted for irradiation. The experimental animals were randomized to groups receiving sham RT, one or three fractions of RT2 Gy and RT9 Gy with current or sequential regorafenib. Data were collected from six rats in each group.
# According to the formula used to translate doses from animal to human, human equivalent dose (HED, mg/kg) = animal dose (mg/kg) × animal km/human km, we calculated the daily dose of regorafenib for rats to be 16 (mg/kg/day). The rats were randomly divided into ten groups with six rats in each group. The concurrent groups treated with regorafenib 1 h after RT, in the same day, to mimic regorafenib concurrent with RT in the daily practice. The sequential groups treated with regorafenib following RT (not in the same day), to mimic RT followed by regorafenib in the daily practice. The one fraction study group included (A) a sham group, regorafenib with RT0 Gy (regorafenib × 1 d); concurrent groups treated with regorafenib 1 h after (B) RT2 Gy with 1 fraction (RT2 Gy × 1 f’x) and (D) RT9 Gy with 1 fraction (RT9 Gy × 1 f’x); and sequential groups treated with regorafenib 24 h after (C) RT2 Gy × 1 f’x and (E) RT9 Gy × 1 f’x. Continued treatment mimicking clinical practice was applied to (A) a sham group, regorafenib (p.o. (per os), q.d. × 3 d) with RT0 Gy (regorafenib × 3 d); concurrent groups treated with regorafenib (p.o., q.d. × 3 d) 1 h after (B) RT2 Gy with 3 fractions (RT2 Gy × 3 f’x) and (D) RT9 Gy with 3 fractions (RT9Gy × 3 f’x); and sequential groups treated with regorafenib 24 h (p.o., q.d. × 3 d) after (C) RT2 Gy × 3 f’x and (E) RT9 Gy × 3 f’x. (Figure 1A,B).
# A 150 µL blood sample was withdrawn from the jugular vein with a fraction collector at 0.25, 0.5, 0.75, 1, 1.5, 2, 2.5, 3, 3.5 and 4 h, following drug administration. The samples were centrifuged for 10 min, at 4200× g. Then, 50 µL of the resulting plasma was vortexed with 1 mL of ethyl acetate and centrifuged at 5900× g. The upper layer was transferred to a new tube and evaporated to dryness.
# The HPLC system included chromatographic pumps (LC-20AT; Shimadzu Co., Kyoto, Japan), an autosampler (SIL-20AC; Shimadzu Co., Kyoto, Japan) and a UV–Vis detector (SPDM20A; Shimadzu Co., Kyoto, Japan). A Waters Acquity C^18 column (50 × 2.1 mm, particle size 1.7 μm, Eclipse XDB, Agilent, Palo Alto, CA, USA) was used for sample analysis. The mobile phase consisted of potassium dihydrogen phosphate (10 mM, pH = 3) and acetonitrile (55:45, v/v). The flow rate was set to 0.2 mL/min, and the injection volume was 5 μL. The temperature in the autosampler was set to 40 °C. The UV–Vis detector scanned from 190 to 300 nm, and the chromatographic profiles were monitored at 265 nm for regorafenib and diethylstilbestrol (internal standard (IS)).
# The process for sample extraction was as follows: 50 μL of rat plasma was mixed with internal standard (10 μL, IS, diethylstilbestrol) solution and methanol (140 μL) for protein precipitation. […]
# [1] = male, Sprague-Dawley, rat, rat plasma, 16 mg/kg p.o. × 1 d, no RT
# [2] = male, Sprague-Dawley, rat, rat plasma, 16 mg/kg p.o. × 3 d, no RT
# [3] = male, Sprague-Dawley, rat, rat plasma, RT2 Gy × 1 f'x followed by regorafenib 16 mg/kg p.o. × 1 d (sequential)
# [4] = male, Sprague-Dawley, rat, rat plasma, RT2 Gy × 1 f'x with regorafenib 16 mg/kg p.o. × 1 d (concurrent)
# [5] = male, Sprague-Dawley, rat, rat plasma, RT2 Gy × 3 f'x followed by regorafenib 16 mg/kg p.o. × 3 d (sequential)
# [6] = male, Sprague-Dawley, rat, rat plasma, RT2 Gy × 3 f'x with regorafenib 16 mg/kg p.o. × 3 d (concurrent)
# [7] = male, Sprague-Dawley, rat, rat plasma, RT9 Gy × 1 f'x followed by regorafenib 16 mg/kg p.o. × 1 d (sequential)
# [8] = male, Sprague-Dawley, rat, rat plasma, RT9 Gy × 1 f'x with regorafenib 16 mg/kg p.o. × 1 d (concurrent)
# [9] = male, Sprague-Dawley, rat, rat plasma, RT9 Gy × 3 f'x followed by regorafenib 16 mg/kg p.o. × 3 d (sequential)
# [10] = male, Sprague-Dawley, rat, rat plasma, RT9 Gy × 3 f'x with regorafenib 16 mg/kg p.o. × 3 d (concurrent)
# [11] = rat plasma, 16 mg/kg p.o. × 1 d, no RT
# [12] = rat plasma, 16 mg/kg p.o. × 3 d, no RT
# [13] = rat plasma, RT2 Gy × 1 f'x followed by regorafenib 16 mg/kg p.o. × 1 d (sequential)
# [14] = rat plasma, RT2 Gy × 1 f'x with regorafenib 16 mg/kg p.o. × 1 d (concurrent)
# [15] = rat plasma, RT2 Gy × 3 f'x followed by regorafenib 16 mg/kg p.o. × 3 d (sequential)
# [16] = rat plasma, RT2 Gy × 3 f'x with regorafenib 16 mg/kg p.o. × 3 d (concurrent)
# [17] = rat plasma, RT9 Gy × 1 f'x followed by regorafenib 16 mg/kg p.o. × 1 d (sequential)
# [18] = rat plasma, RT9 Gy × 1 f'x with regorafenib 16 mg/kg p.o. × 1 d (concurrent)
# [19] = rat plasma, RT9 Gy × 3 f'x followed by regorafenib 16 mg/kg p.o. × 3 d (sequential)
# [20] = rat plasma, RT9 Gy × 3 f'x with regorafenib 16 mg/kg p.o. × 3 d (concurrent)
structure (smiles),measurement,setting,value
"CNC(=O)c1cc(Oc2ccc(NC(=O)Nc3ccc(Cl)c(C(F)(F)F)c3)c(F)c2)ccn1 [regorafenib, Regorafenib]",Decrease of plasma AUCregorafenib,"concurrent RT2 Gy × 1 f'x vs sham RT (regorafenib × 1 d), rat",33.0%
same,Decrease of plasma AUCregorafenib,"concurrent RT2 Gy × 3 f'x vs regorafenib × 3 d, rat",74%
same,Decrease of plasma AUCregorafenib,"concurrent RT9 Gy × 3 f'x vs regorafenib × 3 d, rat",69% and 69.4%
same,concentration at 180 min,"male, Sprague-Dawley, oral, rat plasma collected 180 min after regorafenib 16 mg/kg p.o. alone",1500 ng/mL
same,MRT,[1],24.7 h
same,Tmax,[1],3.17 h
same,half-life,[1],15.7 ± 8.92 h
same,MRT,[2],13.7 h
same,Tmax,[2],1.5 h
same,half-life,[2],9.17 ± 2.43 h
same,MRT,[3],9.22 h
same,Tmax,[3],3 h
same,half-life,[3],5.77 ± 1.55 h
same,MRT,[4],10.8 h
same,Tmax,[4],2.75 h
same,half-life,[4],6.82 ± 2.5 h
same,MRT,[5],22.8 h
same,Tmax,[5],1.67 h
same,half-life,[5],15.3 ± 15.9 h
same,MRT,[6],9.73 h
same,Tmax,[6],2.08 h
same,half-life,[6],6.2 ± 2.53 h
same,MRT,[7],15.6 h
same,Tmax,[7],2.58 h
same,half-life,[7],10.1 ± 3.5 h
same,MRT,[8],16.3 h
same,Tmax,[8],2.58 h
same,half-life,[8],10.9 ± 7.42 h
same,MRT,[9],14.3 h
same,Tmax,[9],1.83 h
same,half-life,[9],9.52 ± 5.38 h
same,MRT,[10],16.4 h
same,Tmax,[10],1.63 h
same,half-life,[10],11 ± 9.97 h
same,"Decrease of regorafenib levels (AUC) by a single fraction of RT, concurrent regimen","off-target or SBRT dose, × 1 f'x, concurrent, rat",~35%
same,"AUCregorafenib, sequential RT2 Gy × 3 f'x relative to concurrent RT2 Gy × 3 f'x",rat plasma,2.0 fold
same,Cl,[11],8.18 ± 3.06 mL/min/kg
same,Vss,[11],12641.9 ± 6928.9 mL/kg
same,Cl,[12],4.21 ± 1.82 mL/min/kg
same,Vss,[12],3604.5 ± 951.1 mL/kg
same,Cl,[13],6.19 ± 0.35 mL/min/kg
same,Vss,[13],3081.4 ± 773.1 mL/kg
same,Cl,[14],16.6 ± 7.21 mL/min/kg
same,Vss,[14],21606.9 ± 20731.8 mL/kg
same,Cl,[15],8.56 ± 7.21 mL/min/kg
same,Vss,[15],4156.0 ± 1959.9 mL/kg
same,Cl,[16],23.20 ± 9.45 ^n mL/min/kg
same,Vss,[16],12759.6 ± 8467.4 ^p mL/kg
same,Cl,[17],3.3 ± 4.3 mL/min/kg
same,Vss,[17],2898.8 ± 4123.7 mL/kg
same,Cl,[18],34.6 ± 25.3 mL/min/kg
same,Vss,[18],30999.0 ± 34618.0 mL/kg
same,Cl,[19],11.4 ± 4.5 mL/min/kg
same,Vss,[19],7960.3 ± 3023.5 ^r mL/kg
same,Cl,[20],19.0 ± 11.7 ^o mL/min/kg
same,Vss,[20],11564.4 ± 3361.0 ^q mL/kg
same,Increase of plasma AUCregorafenib,"sequential RT2 Gy × 1 f'x vs regorafenib × 1 d, rat",182.8%
same,Decrease of plasma AUCregorafenib,"sequential RT2 Gy × 3 f'x vs regorafenib × 3 d, rat",20.7%
same,Increase of plasma AUCregorafenib,"sequential RT9 Gy × 1 f'x vs regorafenib × 1 d, rat",213.2%
same,Decrease of plasma AUCregorafenib,"sequential RT9 Gy × 3 f'x vs regorafenib × 3 d, rat",45.8%
